This is an account of results in ChEMBL document CHEMBL1124865, “Synthesis and biological evaluation of a series of parenteral 3'-quaternary ammonium cephalosporins” (J Med Chem, 1990).

Holding throughout (type): functional
The subject of test [1] is Enterobacter cloacae. Briefly: Antibacterial activity against Enterobacter cloacae 265A.
Test [2] has as its system Escherichia coli. Briefly: Antibacterial activity against Escherichia coli EC14.
Test [3] concerns Enterobacter cloacae. In words: Antibacterial activity against Enterobacter cloacae EB5.
Test [4] has as its system Escherichia coli. In words: Antibacterial activity against Escherichia coli TEM.
The test system of test [5] is Klebsiella pneumoniae. In words: microbe, parasite or virus in culture.
Description: Antibacterial activity against Klebsiella pneumoniae 1082E
Test [6] relates to Klebsiella pneumoniae. In words: Antibacterial activity against Klebsiella pneumoniae X26.
The test system of test [7] is Pseudomonas aeruginosa. Briefly: In vivo efficacy against Pseudomonas aeruginosa infected mice treated at 1 hr and 5 hr post infection.
Test [8] has as its system Staphylococcus aureus. Briefly: In vivo efficacy against Staphylococcus aureus infected mice treated at 1 hr and 5 hr post infection.
For test [9], the system named is Escherichia coli. Briefly: In vivo efficacy against Escherichia coli infected mice treated at 1 hr and 5 hr post infection.
The subject of test [10] is Escherichia coli. In words: In vivo efficacy against Escherichia coli infections in mice. Conditions: Escherichia coli; read-out: MIC.
Test [11] deals with Pseudomonas aeruginosa. In words: In vivo efficacy against Pseudomonas aeruginosa infections in mice.
For test [12], the system named is Staphylococcus aureus. In words: In vivo efficacy against Staphylococcus aureus infections in mice.
In test [13] the test system is Pseudomonas aeruginosa. In words: Antibacterial activity against Pseudomonas aeruginosa X528.
Test [14] concerns Pseudomonas aeruginosa. In words: Antibacterial activity against Pseudomonas aeruginosa PS18.
In test [15] the test system is Staphylococcus aureus. Briefly: Antibacterial activity against penicillin G resistance Staphylococcus aureus.
Test [16] deals with Staphylococcus aureus. In words: Antibacterial activity against penicillin G susceptible Staphylococcus aureus. To be noted: Staphylococcus aureus; read-out: MIC.
The test system of the next test is Streptococcus pneumoniae. In words: Antibacterial activity against Streptococcus pneumoniae. To be noted: Streptococcus pneumoniae; read-out: MIC.
In the next test the test system is Serratia marcescens. Briefly: Antibacterial activity against Serratia marcescens SE3.
The next test deals with Streptococcus pyogenes. Briefly: Antibacterial activity against Streptococcus pyogenes.
Another test has as its system Enterococcus faecium. Briefly: Antibacterial activity against Enterococcus faecium. To be noted: Enterococcus faecium; read-out: MIC.
[17] abbreviates: Enterobacter cloacae, read-out: MIC.
Where [18] appears, read: Escherichia coli, read-out: MIC.
Setting [19] is: Klebsiella pneumoniae, read-out: MIC.
[20] abbreviates: Pseudomonas aeruginosa, read-out: ED50.
The mark [21] stands for this setting: Staphylococcus aureus, read-out: ED50.
Setting [22] is: Escherichia coli, read-out: ED50.
The mark [23] stands for this setting: Pseudomonas aeruginosa, read-out: MIC.
The mark [24] stands for this setting: Staphylococcus aureus, read-out: MIC.
The mark [25] stands for this setting: Serratia marcescens, read-out: MIC.
Setting [26] is: Streptococcus pyogenes, read-out: MIC.

As a reminder, the ED50 is the dose that gives a 50% effect, or the effect in half of the subjects.

Converted amounts (≈) assume the structure as drawn.

In the case of `CO/N=C(\C(=O)N[C@@H]1C(=O)N2C(C(=O)[O-])=C(C[n+]3ccc4c(O)cccc4c3)CS[C@H]12)c1csc(N)n1`, the MIC in the test with Enterobacter cloacae [1] (setting [17]) was 16 µg/mL (≈ 29.6 µM); in the test on Escherichia coli [2] (setting [18]), 0.015 µg/mL (≈ 0.0277 µM); in the test on Enterobacter cloacae [3] (setting [17]) it was 0.125 µg/mL (≈ 0.231 µM); in the test on Escherichia coli [4] (setting [18]), 0.03 µg/mL (≈ 0.0555 µM); in the test with Klebsiella pneumoniae [5] (setting [19]), 8 µg/mL (≈ 14.8 µM); with Klebsiella pneumoniae [6] (setting [19]), under 0.008 µg/mL. Besides, the MIC in the test with Escherichia coli [10] worked out at 0.015 µg/mL (≈ 0.0277 µM); with Pseudomonas aeruginosa [11] (setting [23]), 8 µg/mL (≈ 14.8 µM); with Staphylococcus aureus [12] (setting [24]), 1 µg/mL (≈ 1.85 µM); with Pseudomonas aeruginosa [13] (setting [23]), 8 µg/mL (≈ 14.8 µM); in the test with Pseudomonas aeruginosa [14] (setting [23]), 8 µg/mL (≈ 14.8 µM); with Staphylococcus aureus [15] (setting [24]), 2 µg/mL (≈ 3.7 µM). Moreover, the MIC in the test with Staphylococcus aureus [16] is 1 µg/mL (≈ 1.85 µM); in the test on Streptococcus pneumoniae, 0.05 µg/mL (≈ 0.0925 µM); in the test on Serratia marcescens (setting [25]) it was 0.25 µg/mL (≈ 0.462 µM); with Streptococcus pyogenes (setting [26]), under 0.008 µg/mL; in the test with Enterococcus faecium it was 128 µg/mL (≈ 237 µM). Moreover, the ED50 was over 50 mg/kg with Pseudomonas aeruginosa [7] (setting [20]), 2 mg/kg in the test with Staphylococcus aureus [8] (setting [21]) and under 0.03 mg/kg in the test on Escherichia coli [9] (setting [22]).

As to `CO/N=C(\C(=O)N[C@@H]1C(=O)N2C(C(=O)[O-])=C(C[n+]3cccc4cc(O)ccc43)CS[C@H]12)c1csc(N)n1`, the MIC with Enterobacter cloacae [1] (setting [17]) was 16 µg/mL (≈ 29.6 µM); in the test on Escherichia coli [2] (setting [18]), 0.03 µg/mL (≈ 0.0555 µM); with Enterobacter cloacae [3] (setting [17]), 0.5 µg/mL (≈ 0.925 µM); in the test with Escherichia coli [4] (setting [18]), 0.03 µg/mL (≈ 0.0555 µM); in the test on Klebsiella pneumoniae [5] (setting [19]), 4 µg/mL (≈ 7.4 µM); in the test with Klebsiella pneumoniae [6] (setting [19]), under 0.008 µg/mL. Moreover, the MIC in the test on Escherichia coli [10] stood at 0.03 µg/mL (≈ 0.0555 µM); in the test with Pseudomonas aeruginosa [11] (setting [23]) it was 8 µg/mL (≈ 14.8 µM); in the test with Staphylococcus aureus [12] (setting [24]), 1 µg/mL (≈ 1.85 µM); in the test on Pseudomonas aeruginosa [13] (setting [23]), 8 µg/mL (≈ 14.8 µM); in the test with Pseudomonas aeruginosa [14] (setting [23]), 8 µg/mL (≈ 14.8 µM); with Staphylococcus aureus [15] (setting [24]), 2 µg/mL (≈ 3.7 µM). For the same molecule, the MIC was 1 µg/mL (≈ 1.85 µM) in the test on Staphylococcus aureus [16]; under 0.008 µg/mL in the test on Streptococcus pneumoniae; 0.5 µg/mL (≈ 0.925 µM) in the test with Serratia marcescens (setting [25]); under 0.008 µg/mL with Streptococcus pyogenes (setting [26]); 128 µg/mL (≈ 237 µM) with Enterococcus faecium. Moreover, the ED50 with Pseudomonas aeruginosa [7] (setting [20]) came to 29 mg/kg; with Staphylococcus aureus [8] (setting [21]) it was 1 mg/kg; with Escherichia coli [9] (setting [22]), 0.04 mg/kg.

On to `CO/N=C(\C(=O)N[C@@H]1C(=O)N2C(C(=O)[O-])=C(C[n+]3cccc(CC(=O)O)c3)CS[C@H]12)c1csc(N)n1` (stereo in doubt; 24), for which the MIC against Escherichia coli [2] worked out at 0.125 µg/mL (≈ 0.235 µM); against Klebsiella pneumoniae [5], 8 µg/mL (≈ 15 µM); in the test on Klebsiella pneumoniae [6], 0.06 µg/mL (≈ 0.113 µM); with Pseudomonas aeruginosa [11] it was 16 µg/mL (≈ 30 µM); against Pseudomonas aeruginosa [13] it was 4 µg/mL (≈ 7.51 µM); with Staphylococcus aureus [15], 8 µg/mL (≈ 15 µM). The molecule also displayed an MIC with Serratia marcescens of 0.5 µg/mL (≈ 0.939 µM). In addition, the ED50 in the test with Pseudomonas aeruginosa [7] stood at 17.4 mg/kg; in the test with Escherichia coli [9] it was 0.09 mg/kg.

On to `CO/N=C(\C(=O)N[C@@H]1C(=O)N2C(C(=O)[O-])=C(C[n+]3ccc(CC(=O)NO)cc3)CS[C@H]12)c1csc(N)n1` (stereo in doubt; 12), for which the MIC against Enterobacter cloacae [1] is over 128 µg/mL; against Escherichia coli [2], 0.06 µg/mL (≈ 0.11 µM); against Enterobacter cloacae [3], 4 µg/mL (≈ 7.3 µM); against Escherichia coli [4] it was 0.125 µg/mL (≈ 0.228 µM); against Klebsiella pneumoniae [5], 32 µg/mL (≈ 58.4 µM); with Klebsiella pneumoniae [6], 0.06 µg/mL (≈ 0.11 µM). Besides, the MIC stood at 4 µg/mL (≈ 7.3 µM) against Staphylococcus aureus [12], 4 µg/mL (≈ 7.3 µM) against Pseudomonas aeruginosa [13], 8 µg/mL (≈ 14.6 µM) in the test with Pseudomonas aeruginosa [14] and 8 µg/mL (≈ 14.6 µM) in the test on Staphylococcus aureus [15]. Also, the ED50 in the test with Pseudomonas aeruginosa [7] is 8.6 mg/kg; in the test with Staphylococcus aureus [8] it was 5.3 mg/kg; in the test with Escherichia coli [9] it was under 0.16 mg/kg.

Take `CO/N=C(\C(=O)N[C@@H]1C(=O)N2C(C(=O)[O-])=C(C[n+]3ccc(CC(=O)NO)cc3)CS[C@H]12)c1csc(N)n1` (stereo in doubt; 13): the MIC came to 128 µg/mL (≈ 234 µM) with Enterobacter cloacae [1], 64 µg/mL (≈ 117 µM) in the test with Pseudomonas aeruginosa [11], 8 µg/mL (≈ 14.6 µM) against Staphylococcus aureus [12] and 16 µg/mL (≈ 29.2 µM) in the test with Pseudomonas aeruginosa [13]. Moreover, the results for the ED50 in the test on Pseudomonas aeruginosa [7], in the test on Staphylococcus aureus [8] and in the test on Escherichia coli [9] were 31 mg/kg, over 10 mg/kg and 0.05 mg/kg, respectively.

In the case of `CO/N=C(\C(=O)N[C@@H]1C(=O)N2C(C(=O)[O-])=C(C[n+]3ccc(CC(=O)NO)cc3)CS[C@H]12)c1csc(N)n1` (stereo in doubt; 21), the MIC against Enterobacter cloacae [1] turned out to be 16 µg/mL (≈ 29.2 µM); in the test with Enterobacter cloacae [3], 0.125 µg/mL (≈ 0.228 µM); in the test with Staphylococcus aureus [12] it was 2 µg/mL (≈ 3.65 µM); in the test with Pseudomonas aeruginosa [13] it was 1 µg/mL (≈ 1.83 µM); against Serratia marcescens, 0.06 µg/mL (≈ 0.11 µM); against Streptococcus pyogenes it was 0.015 µg/mL (≈ 0.0274 µM). For the same molecule, the ED50 amounted to 3.3 mg/kg with Staphylococcus aureus [8] and 0.07 mg/kg in the test with Escherichia coli [9].
